Test results from patent US7595404B2, “Thiazolyl-substituted carbocyclic 1,3-diones as pesticidal agents” (Bayer CropScience AG, priority 2001, dated 2009).

How the values were obtained:
Lolium = test: Pre-emergence test, Lolium; assay type: in vivo; details: pre-emergence/greenhouse; 60 g a.i./ha; after three weeks
Experimental: (§1) • Solvent: 5 parts by weight of acetone • Emulsifier: 1 part by weight of alkylaryl polyglycol ether
(§2) To produce a suitable preparation of active compound, 1 part by weight of active compound is mixed with the stated amount of solvent, the stated amount of emulsifier is added and the concentrate is diluted with water to the desired concentration.
(§3) Seeds of the test plants are sown in normal soil. After about 24 hours, the soil is sprayed with the preparation of active compound such that the particular amounts of active compound desired are applied per unit area. The concentration of the spray liquor is chosen such that the particular amounts of active compound desired are applied in 1000 l of water/ha.
(§4) After three weeks, the degree of damage to the plants is rated in % damage in comparison to the development of the untreated control.
(§5) The figures denote: • 0% =no effect (like untreated control) • 100% =total destruction

Sinapis = test: Post-emergence test, Sinapis; assay type: in vivo; details: post-emergence/greenhouse; 250 g a.i./ha; after three weeks
Experimental: as §1, §2
as §3, with “Test plants” for “Seeds”, “a height of 5-15 cm” for “the test plants”, “are” for “are sown in normal soil. After about 24 hours, the soil is”
as §4, §5

Matricaria = test: Pre-emergence test, Matricaria; assay type: in vivo; details: pre-emergence/greenhouse; 60 g a.i./ha; after three weeks
Experimental: as §1, §2, §3, §4, §5

Septoria tritici = test: In vitro test for the ED50 determination in microorganisms, Septoria tritici; assay type: cell-based; details: 50% inhibition of fungal growth, tested at 0.1, 1, 10 and 100 ppm, 22° C., 3-5 days, photometric 620 nm
Digitaria = test: Pre-emergence test, Digitaria; assay type: in vivo; details: pre-emergence/greenhouse; 60 g a.i./ha; after three weeks
Experimental: as §1, §2, §3, §4, §5

[1] = test system: apple scab pathogen Venturia inaequalis; test: Venturia test (apple)/protective; assay type: in vivo; details: protective, 100 g/ha, 10 days after inoculation
Experimental: (§6) Venturia Test (Apple)/Protective […] To produce a suitable preparation of active compound, 1 part by weight of active compound is mixed with the stated amounts of solvent and emulsifier, and the concentrate is diluted with water to the desired concentration. To test for protective activity, young plants are sprayed with the preparation of active compound at the stated application rate. After the spray coating has dried on, the plants are inoculated with an aqueous conidia suspension of the apple scab pathogen Venturia inaequalis and then remain in an incubation cabin at about 20° C. and 100% relative atmospheric humidity for 1 day. The plants are then placed in a greenhouse at about 21° C. and a relative atmospheric humidity of about 90%.

Setaria [2] = test: Pre-emergence test, Setaria; assay type: in vivo; details: pre-emergence/greenhouse; 60 g a.i./ha; after three weeks
Experimental: as §1, §2, §3, §4, §5

Sphaerotheca fuliginea = test: Sphaerotheca test (cucumber)/protective; assay type: in vivo; details: protective, 100 g/ha, 7 days after inoculation
Experimental: as §6, with “Sphaerotheca” for “Venturia”, “(Cucumber)/Protective” for “(Apple)/Protective”, “spore” for “conidia”, “Sphaerotheca fuliginea.” for “the apple scab pathogen Venturia inaequalis and then remain in an incubation cabin at about 20° C. and 100% relative atmospheric humidity for 1 day.”, “23°” for “21°”, “70%.” for “90%.”

[3] = test system: caterpillars of the armyworm (Spodoptera frugiperda); test: Spodoptera frugiperda test; assay type: in vivo; details: 500 ppm, dipped cabbage leaves
Experimental: Spodoptera Frugiperda Test • Solvent: 7 parts by weight of dimethylformamide • Emulsifier: 2 parts by weight of alkylaryl polyglycol ether To produce a suitable preparation of active compound, 1 part by weight of active compound is mixed with the stated amounts of solvent and emulsifier, and the concentrate is diluted with emulsifier-containing water to the desired concentration. Cabbage leaves (Brassica oleracea) are treated by being dipped into the preparation of active compound of the desired concentration and are populated with caterpillars of the armyworm (Spodoptera frugiperda) while the leaves are still moist. After the desired period of time, the kill in % is determined. 100% means that all caterpillar larvae have been killed; 0% means that none of the caterpillar have been killed.

Pyricularia oryzae = assay type: cell-based; details: 50% inhibition of fungal growth, tested at 0.1, 1, 10 and 100 ppm, 22° C., 3-5 days, photometric 620 nm
Avena fatua = test: Post-emergence test, Avena fatua; assay type: in vivo; details: post-emergence/greenhouse; 250 g a.i./ha; after three weeks
Experimental: as §1, §2
as §3, with “Test plants” for “Seeds”, “a height of 5-15 cm” for “the test plants”, “are” for “are sown in normal soil. After about 24 hours, the soil is”
as §4, §5

Alternaria solani = test: Alternaria test (tomato)/protective; assay type: in vivo; details: protective, 100 g/ha, 3 days after inoculation
Experimental: Alternaria Test (Tomato)/Protective […] To produce a suitable preparation of active compound, 1 part by weight of active compound is mixed with the stated amounts of solvent and emulsifier, and the concentrate is diluted with water to the desired concentration. To test for protective activity, young plants are sprayed with the preparation of active compound at the stated application rate. After the spray coating has dried on, the plants are inoculated with an aqueous spore suspension of Alternaria solani. The plants are then placed in an incubation cabin at about […] and 100% relative atmospheric humidity.

Alopecurus = test: Post-emergence test, Alopecurus; assay type: in vivo; details: post-emergence/greenhouse; 250 g a.i./ha; after three weeks
Experimental: as §1, §2
as §3, with “Test plants” for “Seeds”, “a height of 5-15 cm” for “the test plants”, “are” for “are sown in normal soil. After about 24 hours, the soil is”
as §4, §5

Wheat = test: Pre-emergence test, Wheat; assay type: in vivo; details: pre-emergence/greenhouse; 60 g a.i./ha; after three weeks; crop
Experimental: as §1, §2, §3, §4, §5

Setaria [4] = test: Post-emergence test, Setaria; assay type: in vivo; details: post-emergence/greenhouse; 250 g a.i./ha; after three weeks
Experimental: as §1, §2
as §3, with “Test plants” for “Seeds”, “a height of 5-15 cm” for “the test plants”, “are” for “are sown in normal soil. After about 24 hours, the soil is”
as §4, §5

Botrytis cinerea = test: Botrytis test (bean)/protective; assay type: in vivo; details: protective, 500 g/ha, 2 days after inoculation
Experimental: Botrytis Test (Bean)/Protective
• Solvent: 24.5 parts by weight of acetone 24.5 parts by weight of dimethylacetamide • Emulsifier: 1 part by weight of alkyl-arylpolyglycol ether
To produce a suitable preparation of active compound, 1 part by weight of active compound is mixed with the stated amounts of solvent and emulsifier, and the concentrate is diluted with water to the desired concentration.
To test for protective activity, young plants are sprayed with the preparation of active compound at the stated application rate. After the spray coating has dried on, two small pieces of agar colonized by Botrytis cinerea are placed onto each leaf. The inoculated plants are placed in a dark chamber at about 20° C. and 100% relative atmospheric humidity.
2 days after the inoculation, the size of the infested areas on the leaves is evaluated. 0% means an efficacy which corresponds to that of the control, whereas an efficacy of 100% means that no infection is observed.

Soya bean = test: Pre-emergence test, Soya bean; assay type: in vivo; details: pre-emergence/greenhouse; 60 g a.i./ha; after three weeks; crop
Experimental: as §1, §2, §3, §4, §5

Ustilago avenae = test: In vitro test for the ED50 determination in microorganisms, Ustilago avenae; assay type: cell-based; details: 50% inhibition of fungal growth, tested at 0.1, 1, 10 and 100 ppm, 22° C., 3-5 days, photometric 620 nm

## Cc1sc(-c2ccc(Cl)cc2)nc1C1=C(O)C2(CCCCC2)CC1=O [Example I-1-a-2]
Lolium
  % damage, Lolium: 100%
Sinapis
  % damage, Sinapis: 80%
Matricaria
  % damage, Matricana: 95%
Septoria tritici
  ED50 value: <0.1 ppm
Digitaria
  % damage, Digitaria: 100%
[1]
  % efficacy: 91%
Setaria [2]
  % damage, Setaria: 100%
Sphaerotheca fuliginea
  % efficacy: 100%
[3]
  Kill rate in % after 7 d: 100%
Pyricularia oryzae
  ED50 value: <0.1 ppm
Avena fatua
  % damage, Avena fatua: 100%
Alternaria solani
  % efficacy: 93%
Alopecurus
  % damage, Alopecurus: 90%
Wheat
  % damage, Wheat: 0%
Setaria [4]
  % damage, Setaria: 100%
Botrytis cinerea
  % efficacy: 92%
Soya bean
  % damage, Soya bean: 0%
Ustilago avenae
  ED50 value: <0.1 ppm
